The target of series [1] is T1, Electrophorus electricus AChE (EeAChE) (Electrophorus electricus, UniProt O42275).
T1 construct: purchased Sigma-Aldrich (Milan, Italy)
Kind of series: Ellman's spectrophotometric method, percent inhibition of EeAChE (zero time and after 1 h incubation). The series is classed as biochemical. The method, then:
Regarding the synthesized compounds enzymatic inhibition studies were carried out on Electrophorus electricus AChE (EeAChE) and equine BChE (eqBChE), according to Ellman’s spectrophotometric method.
All other chemical and biological reagents and solvents used were of the highest analytical, commercially available grade. The water, utilized for the preparation of the phosphate buffer and of the solutions of compounds, was distilled and filtered on nylon membrane filters with 0.2 μm pore size with the Millipore® Filtration apparatus before each use. Micropipettes Labmate (BRAND Dig. 10–100 μL; Dig. 100–1000 μL; Dig. 0.1–2 μL) and Transferpette (HIGH TECH LAB LM200: 20–200 μL; LM5000: 1000–5000 μL) were used to collect the samples. The assays were carried out by double beam UV–Vis Lambda 40 Perkin Elmer spectrophotometer, using optical polystyrene cuvettes (10 × 10 × 45 mm, 340–800 nm optical transparency), each measure was repeated at least in triplicate. […] Vivaspin® 2 Sartorius, with a membrane of 3000 MWCO (molecular weight cutoff) consisting of polyethersulfone (PES), cellulose triacetate (CTA) and hydrosart, was used for the ultrafiltration procedures. An ALC PK110 bench-top centrifuge was used for centrifugation. The spectrophotometric method of Ellman, with minor modifications, was used to evaluate the inhibition of cholinesterase enzymes. […] EeAChE and eqBChE were periodically tested to evaluate the effective enzymatic activity.
An amount of 3.0 mL of a solution in 0.1 M phosphate buffer (pH = 7.4) containing DTNB (0.25 mM) and EeAChE (0.083 UmL^−1) or eqBChE (0.083 UmL^−1) were placed in a polystyrene cuvette of 1.0 cm path length; 1 µL of a solution in DMSO of the tested compound was added to obtain in cuvette concentration range 9 µM–0.09 µM. With this solution the blank was made.
Each experiment was repeated at least in triplicate.
The cuvettes were prepared consecutively at intervals of 3 min to allow equal incubation times.
On the technique in general: DTNB colorimetry detects thiols as they appear.

The target in another series is T2, Aβ42 peptide (Homo sapiens, UniProt P05067).
T2 construct: expressed in transfected cells; host or cells: E. coli BL21 (DE3), pET28a vector
T2 sequence (P05067 672-713 limits assumed): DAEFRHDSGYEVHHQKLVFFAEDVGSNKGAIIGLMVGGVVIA
As to the kind of experiment: Inhibition of Aβ42 aggregation in intact E. coli cells, thioflavin-S staining. Particulars: [I] = 100 µM, E. coli cells overexpressing Aβ42. In kind it is cell-based, Escherichia coli. The method, then: For compounds 12, 14 and 18, the inhibitory activity against Aβ42 and tau aggregation was evaluated. The anti-aggregating effect of tested compounds was monitored by a cell-based assay in intact Escherichia coli cells that overexpress either Aβ42 peptide or tau protein, which, upon expression, form insoluble inclusion bodies that were stained with thioflavin-S [42]. The percentages of inhibition towards Aβ42 and tau aggregation were determined at an inhibitor concentration of 100 µM and the obtained results are reported in Table 6. In general, these compounds show a weak anti-aggregating activity; among these, the pyridine carbamate 18 is the best inhibitor of aggregation of both Aβ42 and tau.
E. coli competent cells BL21 (DE3) were transformed with the pET28a vector (Novagen, Inc., Madison, WI, USA) carrying the DNA sequence of Aβ42. Because of the addition of the initiation codon ATG in front of both genes, the overexpressed peptide contains an additional methionine residue at its N terminus. For overnight culture preparation, an amount of 10 mL of the M9 minimal medium containing 50 μg·mL^−1 of kanamycin was inoculated with a colony of BL21 (DE3) bearing the plasmid to be expressed at 37 °C. […]
Th-S (T1892) and other chemical reagents were purchased from Sigma (St. Louis, MO, USA). […] Th-S fluorescence and absorbance were tracked using a DTX 800 plate reader Multimode Detector equipped with a Multimode Analysis Software (Beckman-Coulter, Indianapolis, IN, USA). […] A filter of 535/25 nm was also used for the absorbance determination. To normalize the Th-S fluorescence as a function of the bacterial concentration, OD600 was obtained using a Shimadzu UV-2401 PC UV–Vis spectrophotometer (Shimadzu, Japan). Note that the fluorescence normalisation was carried out considering 100% of the Th-S fluorescence of the bacterial cells expressing the peptide or protein in the absence of the drug and 0% of the Th-S fluorescence of the bacterial cells not expressing the peptide or protein. […]

A further series can be described thus: MTT cell viability assay. In kind it is cell-based. To be noted: human, U-87 MG glioblastoma astrocytoma cells, U-87 MG cells; for viability at 24 h, 10 µM: 10 µM (12 and 18: up to 10 µM). On the procedure:
Compounds 12, 14 and 18 were tested to evaluate the cytotoxic effects on U-87 MG Cell Line from human brain (glioblastoma astrocytoma) at concentration ranging from 1 to 50 µM.
The compounds 12, 14 and 18 were evaluated for cell viability effects using the MTT assay. Briefly, U-87 MG Cell Line from human brain (glioblastoma astrocytoma) (ATCC, Manassas, VA, USA) were seeded into 96-well microtiter plates (NunclonTM, Nunc, Germany) at a density of 1.5 × 10^4 cells/well. […]. After an incubation time of 24 h, the medium was replaced by a new, fresh medium containing 0.5 mg/mL MTT (Sigma, Deisenhofen, Germany). After 2 h at 37 °C in 5%, CO2 unreacted dye was removed and the cells were dissolved by DMSO (Merck, Darmstadt, Germany). Absorbance was read at 570 nm by a microtiter spectrophotometer plate reader. The data were expressed as absorbance relative to untreated cells in the same experiment and standardized to 100%. All data points were performed in triplicate and at least three independent experiments.

Setting [2] is: read-out: % Inhibition vs. EeAChE ± SD, [I] 9 µM, 0.0833 U/mL enzyme, 100 µM acetylthiocholine.

The text below walks through data of publication PMC9227096, “Design, Synthesis, and In Vitro, In Silico and In Cellulo Evaluation of New Pyrimidine and Pyridine Amide and Carbamate Derivatives as Multi-Functional Cholinesterase Inhibitors” (Pharmaceuticals, 2022).

The structures appear in SMILES notation. Like-named read-outs stand apart in the source and are kept apart here. A value given as a limit tells only on which side of the number the result lay.

T1 sequence (O42275 24-633): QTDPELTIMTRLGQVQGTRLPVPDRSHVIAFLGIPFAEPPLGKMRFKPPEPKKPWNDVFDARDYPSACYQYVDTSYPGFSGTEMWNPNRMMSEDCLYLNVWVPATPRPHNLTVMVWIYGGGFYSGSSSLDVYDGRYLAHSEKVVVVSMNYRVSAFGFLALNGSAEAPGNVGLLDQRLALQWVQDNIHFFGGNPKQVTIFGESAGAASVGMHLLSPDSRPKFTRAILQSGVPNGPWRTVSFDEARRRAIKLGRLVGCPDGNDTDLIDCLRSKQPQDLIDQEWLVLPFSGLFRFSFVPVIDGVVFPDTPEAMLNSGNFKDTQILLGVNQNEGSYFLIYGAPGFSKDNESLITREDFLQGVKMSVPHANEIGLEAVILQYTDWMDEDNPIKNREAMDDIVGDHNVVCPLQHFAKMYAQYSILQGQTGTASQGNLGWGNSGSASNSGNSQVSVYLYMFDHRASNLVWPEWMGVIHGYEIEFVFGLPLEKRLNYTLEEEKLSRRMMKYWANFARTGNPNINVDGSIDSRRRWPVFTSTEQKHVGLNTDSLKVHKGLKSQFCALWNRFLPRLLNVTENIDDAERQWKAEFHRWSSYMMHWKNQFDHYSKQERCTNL

Broadly, the inhibition is the percentage by which the read-out fell short of the control. As usually defined, the viability is a read-out of living cells in per cent, often relative to untreated cells. A higher viability goes with less harm to the cells. Turning to `O=C(NCCCCCCNc1ccccn1)c1ccccc1` [Compound 12, N-(6-(pyridin-2-ylamino)hexyl)benzamide], the “% Inhibition vs. EeAChE ± SD” value in series [1] ([I] 9 µM, 0.0833 U/mL enzyme, 100 µM acetylthiocholine) was 34.0 ± 2.1%. The inhibition at 9 µM in series [1] (setting [2]) was found to be 34%. Further, at 100 µM the inhibition at Aβ42 peptide was 11.9%. In the series “MTT cell viability assay”, the viability at 24 h, 10 µM is greater than 90% and the viability at 24 h, 50 µM was greater than 35%.

For `O=C(Cc1ccc(Oc2ccccc2)cc1)NCCCCCCNc1ccccn1` [Compound 14, 2-(4-phenoxyphenyl)-N-(6-(pyridin-2-ylamino)hexyl)acetamide], in series [1] (setting [2]), the inhibition at 9 µM came to 42.6 ± 1.4%. Moreover, on Aβ42 peptide, the inhibition at 100 µM amounted to 13.3%. In the series “MTT cell viability assay”, this compound returned a viability at 24 h, 10 µM greater than 65% and a viability at 24 h, 50 µM greater than 30%.

As for `O=C(NCCCCCCNc1ccccn1)Oc1ccccc1` [Compound 18, Phenyl (6-(pyridin-2-ylamino)hexyl)carbamate], the inhibition at 9 µM in series [1] (1 h, read-out: % Inhibition vs. EeAChE ± SD, [I] = 9 µM, t = 1 h incubation at 25 °C) stood at 41.6 ± 0.7%. On Aβ42 peptide, the inhibition at 100 µM is 23.1%. In addition, in the series “MTT cell viability assay”, the viability at 24 h, 10 µM is greater than 90% and the viability at 24 h, 50 µM was greater than 35%.
